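Test compounds were applied to cells in 96-well plates for 48 hours at 5 doses. The concentration for 50% growth inhibition is given as GI50. TGI marks complete inhibition of growth.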
Key:
Test in all cases: NCI-60 cell line screen, 48 h
[1] = test system: OVCAR-8 ovarian
[2] = test system: NCI-H23 lung
[3] = test system: HCT-15 colon
[4] = test system: UACC-257 melanoma
[5] = test system: SR leukemia
[6] = test system: A549 NSCLC
[7] = test system: HOP-62 NSCLC
[8] = test system: ACHN renal
[9] = test system: U251 CNS
[10] = test system: HCC-2998 colon

| Structure (SMILES) | TGI [1] | TGI [2] | TGI [3] | TGI [4] | TGI [5] | TGI [6] | TGI [7] | TGI [8] | TGI [9] | GI50 [1] | GI50 [2] | GI50 [3] | GI50 [4] | GI50 [10] | TGI [10] | GI50 [6] | GI50 [7] | GI50 [8] | GI50 [9] | GI50 [5] |
| --- | --- | --- | --- | --- | --- | --- | --- | --- | --- | --- | --- | --- | --- | --- | --- | --- | --- | --- | --- | --- |
| c1cc2c(c(NC3=NCCN3)c1)CCCC2 | > 100 µM | > 100 µM | > 100 µM | > 100 µM | > 100 µM | > 100 µM | > 100 µM | > 100 µM | > 100 µM | – | – | – | – | – | – | – | – | – | – | – |
| O=C(c1ccco1)c1c(C(F)(F)F)n([O-])c2ccc(F)cc2[n+]1=O | 1.17 µM | 2.49 µM | 0.855 µM | 2.81 µM | – | 9.87 µM | 13.7 µM | 2.62 µM | 2.6 µM | 0.558 µM | 1.02 µM | 0.219 µM | 1.47 µM | 0.775 µM | 2.02 µM | 3.08 µM | 3 µM | 1.33 µM | 1.33 µM | – |
| c1ccc2c(c1)N=C(c1ccc3ccccc3c1)CC(c1cccc3ccccc13)S2 (stereo not given) | > 100 µM | > 100 µM | > 100 µM | > 100 µM | – | > 100 µM | > 100 µM | > 100 µM | > 100 µM | – | – | – | – | – | 40.3 µM | – | – | – | – | – |
| Nc1nc2ncn(CC(O)COC(=O)c3ccccc3)c2c(=O)[nH]1 (stereo not given) | > 100 µM | > 100 µM | > 100 µM | > 100 µM | > 100 µM | > 100 µM | > 100 µM | > 100 µM | > 100 µM | – | – | – | – | – | – | – | – | – | – | – |
| O=C1N=C(Nc2nc(-c3csc(NC4=NC(=O)/C(=C\c5ccc(Cl)cc5)S4)n3)cs2)S/C1=C/c1ccc(Cl)cc1 | 30.2 µM | > 50 µM | > 50 µM | 18.1 µM | – | > 50 µM | 18 µM | 48.5 µM | > 50 µM | 8.99 µM | 13.5 µM | 40.4 µM | 5.14 µM | 13.3 µM | 45.2 µM | 10.5 µM | 3.29 µM | 11.2 µM | 4.83 µM | – |
| COc1cccc(/C=C\c2ccnc3ccccc23)c1 | > 10 µM | > 10 µM | > 10 µM | > 10 µM | – | > 10 µM | > 10 µM | > 10 µM | > 10 µM | – | – | – | – | – | > 10 µM | – | – | – | – | – |
| NC(=O)c1ncn(Cc2ccccc2)c1CNC(N)=S | > 100 µM | > 100 µM | > 100 µM | – | > 100 µM | > 100 µM | – | > 100 µM | > 100 µM | – | – | – | – | – | > 100 µM | – | – | – | – | – |
| CCCCCCCCCCCC(=O)OC(COC(N)=O)COc1ccc(Cl)cc1 (stereo not given) | 33.6 µM | 46 µM | 91.3 µM | 51 µM | – | 36.8 µM | > 100 µM | > 100 µM | 52.7 µM | – | – | – | – | – | 96.1 µM | – | – | – | – | – |
| CCCCCCSc1nc(COC(=O)NC)c(COC(=O)NC)n1C | > 100 µM | > 100 µM | > 100 µM | > 100 µM | > 100 µM | > 100 µM | > 100 µM | > 100 µM | > 100 µM | – | – | – | – | – | – | – | – | – | – | – |
| C#Cc1ccc(-n2c(/C=C/c3ccc4ccccc4c3)nc3ncccc3c2=O)cc1 | > 100 µM | > 100 µM | > 100 µM | – | > 100 µM | > 100 µM | > 100 µM | > 100 µM | > 100 µM | 3.05 µM | 6.39 µM | 2.91 µM | – | 2.32 µM | 5.04 µM | 2.73 µM | 7.45 µM | 2.57 µM | 3.69 µM | 1.4 µM |
| N#Cc1c(N)c(C#N)c2c(c1-c1ccc(Cl)cc1)COc1ccc(F)cc1-2 | > 50 µM | 39.2 µM | > 50 µM | > 50 µM | > 50 µM | > 50 µM | – | > 50 µM | > 50 µM | > 50 µM | 7.11 µM | 43.8 µM | > 50 µM | – | – | 42.6 µM | – | 19.7 µM | 22 µM | > 50 µM |
| COc1cc(/C=C/c2ccccn2)cc(OC)c1OC | > 10 µM | > 10 µM | > 10 µM | > 10 µM | – | > 10 µM | > 10 µM | > 10 µM | > 10 µM | – | – | – | – | – | > 10 µM | – | – | – | – | – |
| Cc1c(O)c(Br)c(C)c(O)c1Br (tested in a mixture with another compound) | – | 4.62 µM | – | 3.02 µM | 3.28 µM | 60 µM | 40.3 µM | 3.05 µM | 24.4 µM | – | – | – | – | – | – | – | – | – | – | – |
| O=C(CSc1ncc(-c2ccccc2)n1-c1ccccc1)Nc1ccc(-c2nc3ccccc3s2)cc1 | – | > 100 µM | > 100 µM | – | – | – | > 100 µM | > 100 µM | 5.56 µM | – | 20.4 µM | > 100 µM | – | > 100 µM | > 100 µM | – | 5.68 µM | 14.5 µM | 2.42 µM | – |
| NCC1(N2CCOCC2)C2CCCC21CNc1ccccc1 (stereo not given) | > 100 µM | > 100 µM | – | > 100 µM | > 100 µM | > 100 µM | > 100 µM | > 100 µM | > 100 µM | – | – | – | – | – | > 100 µM | – | – | – | – | – |
| CC(=O)C(C=O)C(C)=O.CC(=O)CC(C)=O.CC(=O)CC(C)=O.[Ru] | > 100 µM | 44.3 µM | 93.6 µM | > 100 µM | 92.6 µM | > 100 µM | > 100 µM | > 100 µM | > 100 µM | 17.4 µM | 12.1 µM | 11.7 µM | 32.9 µM | – | – | 33.5 µM | 32.4 µM | 21 µM | 29.1 µM | 18.2 µM |
| COC(=O)C1(C)CCCC2(C)c3cc(OC)ccc3C(=O)C(Br)C12 (stereo not given) | 4.54 µM | > 10 µM | > 10 µM | > 10 µM | > 10 µM | > 10 µM | > 10 µM | – | > 10 µM | – | – | – | – | – | > 10 µM | – | – | – | – | – |
| Cc1[nH]n(-c2cccc(Cl)c2)c(=O)c1/C=C1\C=c2ccccc2=CC1=O | > 100 µM | > 100 µM | > 100 µM | > 100 µM | – | > 100 µM | > 100 µM | > 100 µM | > 100 µM | > 100 µM | 48 µM | > 100 µM | > 100 µM | – | – | > 100 µM | 31.4 µM | 17 µM | 40.7 µM | – |
| Cc1ccc(S(=O)(=O)CC2(Br)CCc3ccccc3C2=O)cc1 (stereo not given) | 64.8 µM | > 100 µM | 42.5 µM | 44.1 µM | – | > 100 µM | > 100 µM | 38.2 µM | 46.8 µM | – | – | – | – | – | – | – | – | – | – | – |
